Like-named read-outs stand apart in the source and are kept apart here. One block for each compound: values may come before it.
Tests used:
[1] = system: P. falciparum 3D7 strain; experiment: Antiplasmodial activity, SYBR Green I assay on P. falciparum 3D7 cultures; format: cell-based, Plasmodium falciparum; details: for IC50: read-out: Plasmodium falciparum 3D7 Strain IC50 ± SD
Description: In vitro biological assays. Compounds were tested to establish a full dose-titration and determination of the IC50. […] Antiplasmodial activity. The P. falciparum 3D7 strain was maintained in O+ human erythrocytes in albumin RPMI-supplemented medium under continuous culture using the candle-jar method. The parasites were synchronized to the ring stage by repeated sorbitol treatment. A 2.5% (v/v) erythrocyte suspension with 1% parasitemia (number of parasites per 100 red blood cells) was incubated with the compounds to be tested, previously dissolved in DMSO. […] After 44 h of incubation at 37 °C, the plates were subjected to 3 freeze-thaw cycles to achieve complete hemolysis. […] The incorporation of SYBR Green I (Applied Biosystems) in parasite DNA was measured using the Master […]® (Eppendorf) according to the following program to increase the SYBR Green incorporation: 90 °C (1 min), decrease in temperature from 90 °C to 10 °C (during 5 min) with reading the fluorescence. Then, the IC50 was calculated by icestimator software.

[2] = Cytotoxicity assay on MRC-5 fibroblasts (resazurin); format: cell-based, human; details: human
Description: (§1) In vitro biological assays. Compounds were tested to establish a full dose-titration and determination of the IC50. […] The selectivity antiprotozoal potential on P. falciparum (3D7 strain) was assessed by simultaneous evaluation of cytotoxicity on a fibroblast (MRC-5) cell line.
(§2) Cytotoxicity assay. […] Cell viability was assessed fluorometrically after 4 h of the addition of resazurin. Fluorescence was measured (excitation 550 nm, emission 590 nm), and the results were expressed as % reduction in cell viability compared to untreated control. Tamoxifen is used as the reference control.

[3] = system: human fibroblast MRC-5 cell line; experiment: as above; format: cell-based
Description: as §1, §2

[4] = Plasmodium falciparum, 3D7, 44 h, 3D7 strain, ring-stage synchronized, 44 h incubation, SYBR Green I
[5] = MRC-5 SV2 cells, 72 h, resazurin, read-out: Cytotoxicity MRC-5 CC50
[6] = Plasmodium falciparum, 3D7, 44 h

SMILES: O=C(/C=C/c1ccccn1)/C=C/c1ccccn1 [Compound A1]
IC50 [1, 4]: 0.0301 ± 0.0085 µM | CC50 at 72 h [2]: 1.91 µM | SI CC50/IC50 [3]: 63.4 | cytotoxicity classification from CC50 ([3]; MRC-5 cells, class in words): rather cytotoxic

SMILES: COc1ccc(O)c(/C=C/C(=O)/C=C/c2cc(OC)ccc2O)c1 [Compound A2]
IC50 [1, 4]: 0.0302 ± 0.0063 µM | CC50 at 72 h [2]: 1.88 µM | SI CC50/IC50 [3]: 62.2 | cytotoxicity classification from CC50 ([3]; MRC-5 cells, class in words): rather cytotoxic

SMILES: COc1ccc(/C=C/C(=O)/C=C/c2ccc3ccccc3c2)cc1 [Compound A3]
IC50 [1, 4]: 0.0512 ± 0.0107 µM | CC50 at 72 h [2]: 32 µM | SI CC50/IC50 [3]: 625 | cytotoxicity classification from CC50 [3]: rather not cytotoxic

SMILES: O=C(/C=C/c1ccc(F)cc1)/C=C/c1ccc(F)cc1 [Compound A4]
IC50 [1, 4]: 0.0706 ± 0.0097 µM

SMILES: CN(C)c1ccc(/C=C/C(=O)/C=C/c2ccc(F)cn2)cc1 [Compound A5]
IC50 [1, 4]: 0.11 ± 0.0203 µM | CC50 at 72 h [2]: 32.2 µM | SI CC50/IC50 [3]: 292.4 | cytotoxicity classification from CC50 [3]: rather not cytotoxic

SMILES: O=C(/C=C/c1ccco1)/C=C/c1ccco1 [Compound A8]
IC50 [1, 4]: 0.121 ± 0.0105 µM | CC50 at 72 h [2, 5]: > 64 µM | SI CC50/IC50 [3]: >530.2

SMILES: O=C(/C=C/c1c(Cl)cccc1Cl)/C=C/c1c(Cl)cccc1Cl [Compound A12]
IC50 [1, 4]: 0.24 ± 0.0204 µM | CC50 at 72 h [2, 5]: > 64 µM | SI CC50/IC50 [3]: >266.5

SMILES: Cc1ccc(/C=C/C(=O)/C=C/c2ccc(C)o2)o1 [Compound A16]
IC50 [1, 4]: > 0.5 µM | CC50 at 72 h [2]: 5.36 µM | SI CC50/IC50 [3]: <10.7 | cytotoxicity classification from CC50 ([3]; MRC-5 cells, class in words): rather cytotoxic

SMILES: COc1cc(/C=C/C(=O)/C=C/c2ccc(O)c(OC)c2)ccc1O [Compound A18]
IC50 [1, 6]: > 0.5 µM | CC50 at 72 h [2]: 1.06 µM | SI CC50/IC50 [3]: <2.1 | cytotoxicity classification from CC50 [3]: rather cytotoxic

SMILES: O=C1C[C@H](c2ccccn2)[S+]([O-])[C@@H](c2ccccn2)C1 [Compound B3]
IC50 [1, 4]: 0.0401 ± 0.0073 µM | CC50 at 72 h [2]: 8 µM | SI CC50/IC50 [3]: 199.5 | cytotoxicity classification from CC50 ([3]; MRC-5 cells, class in words): moderately cytotoxic

SMILES: O=C1C[C@H](c2ccccn2)[S+]([O-])[C@H](c2ccccn2)C1 (stereo partly drawn) [Compound B5]
IC50 ([1]; 3D7 strain, ring-stage synchronized, 44 h incubation, SYBR Green I): 0.24 ± 0.0481 µM | CC50 at 72 h [2]: 8.06 µM | SI CC50/IC50 [3]: 33.6 | cytotoxicity classification from CC50 ([3]; MRC-5 cells, class in words): moderately cytotoxic

SMILES: O=C1C[C@@H](c2ccccn2)S[C@@H](c2ccccn2)C1 [Compound B6]
IC50 [1, 4]: > 0.5 µM | CC50 at 72 h [2, 5]: > 64 µM | SI CC50/IC50 [3]: <128

SMILES: O=C1C[C@H](c2ccccn2)S[C@@H](c2ccccn2)C1 [Compound B7]
IC50 [1, 4]: > 0.5 µM | CC50 at 72 h [2, 5]: > 64 µM | SI CC50/IC50 [3]: <128

SMILES: O=C1C[C@H](c2ccccn2)S(=O)(=O)[C@@H](c2ccccn2)C1 [Compound B9]
IC50 [1, 4]: > 0.5 µM | CC50 at 72 h [2]: 7.89 µM | SI CC50/IC50 [3]: <15.8 | cytotoxicity classification from CC50 ([3]; MRC-5 cells, class in words): moderately cytotoxic

SMILES: COc1ccc([C@H]2CC(=O)C[C@H](c3ccc(OC)cc3)S2(=O)=O)cc1 [Compound B10]
IC50 [1, 4]: > 0.5 µM | CC50 at 72 h [2, 5]: > 64 µM | SI CC50/IC50 [3]: <128

SMILES: O=C1C[C@H](c2ccccn2)S(=O)(=O)[C@H](c2ccccn2)C1 [Compound B11]
IC50 [1, 4]: > 0.5 µM | CC50 at 72 h [2]: 7.47 µM | SI CC50/IC50 [3]: <14.9 | cytotoxicity classification from CC50 ([3]; MRC-5 cells, class in words): moderately cytotoxic

SMILES: CC/C(=C(\c1ccccc1)c1ccc(OCCN(C)C)cc1)c1ccccc1 [tamoxifen, reference compound]
CC50 at 72 h ([2]; MRC-5 SV2 fibroblast cells, MRC-5 SV2 cells, 72 h, resazurin, read-out: Cytotoxicity MRC-5 CC50): 9.12 µM

Further lines, with some results ahead:

IC50 [1, 4]: 0.111 ± 0.0125 µM
SMILES: CN(C)c1ccc(/C=C/C(=O)/C=C/c2nccs2)cc1 [Compound A6]
CC50 at 72 h [2]: > 64 µM

IC50 [1, 4]: 0.12 ± 0.0173 µM
SMILES: O=C(/C=C/c1ccccc1)/C=C/c1ccncc1 [Compound A7]
CC50 at 72 h [2]: 1.99 µM | SI CC50/IC50 [3]: 16.5 | cytotoxicity classification from CC50 [3]: rather cytotoxic

IC50 [1, 4]: 0.121 ± 0.0124 µM
SMILES: O=C(/C=C/c1ccc(Cl)cc1)/C=C/c1ccc(Cl)cc1 [Compound A9]
CC50 at 72 h [2]: 42.4 µM | SI CC50/IC50 [3]: 351.6 | cytotoxicity classification from CC50 [3]: rather not cytotoxic

IC50 [1, 4]: 0.161 ± 0.0205 µM
SMILES: O=C(/C=C/c1ccccc1)/C=C/c1ccccn1 [Compound A10]
CC50 at 72 h [2]: 1.53 µM | SI CC50/IC50 [3]: 9.5 | cytotoxicity classification from CC50 [3]: rather cytotoxic

IC50 [1, 4]: 0.181 ± 0.0296 µM
SMILES: O=C(/C=C/c1ccccc1Cl)/C=C/c1ccccc1Cl [Compound A11]
CC50 at 72 h [2]: 29.4 µM | SI CC50/IC50 [3]: 162.3

IC50 [1, 4]: > 0.5 µM
SMILES: O=C(/C=C/c1ccncc1)/C=C/c1ccncc1 [Compound A13]
CC50 at 72 h [2]: 1.13 µM | SI CC50/IC50 [3]: <2.3 | cytotoxicity classification from CC50 [3]: rather cytotoxic

IC50 [1, 4]: > 0.5 µM
SMILES: O=C(/C=C/c1ccccc1)/C=C/c1ncccn1 [Compound A14]
CC50 at 72 h [2]: 1.56 µM | SI CC50/IC50 [3]: <3.1 | cytotoxicity classification from CC50 [3]: rather cytotoxic

IC50 [1, 4]: > 0.5 µM
SMILES: COc1ccc(/C=C/C(=O)/C=C/c2ccc(N)cc2)cc1 [Compound A15]

IC50 [1, 4]: > 0.5 µM
SMILES: Cc1ccc(/C=C/C(=O)/C=C/c2ccc(C)cc2)cc1 [Compound A17]
CC50 at 72 h [2]: 32.5 µM | SI CC50/IC50 [3]: <64.9 | cytotoxicity classification from CC50 [3]: rather not cytotoxic

IC50 [1, 4]: > 0.5 µM
SMILES: CN(C)c1ccc(/C=C/C(=O)/C=C/c2ccc(N(C)C)cc2)cc1 [Compound A19]
CC50 at 72 h [2]: 62.3 µM | SI CC50/IC50 [3]: <124.5 | cytotoxicity classification from CC50 [3]: rather not cytotoxic

IC50 [1, 4]: 0.0303 ± 0.0061 µM
SMILES: COc1cc(Br)c(OC)c([C@@H]2CC(=O)C[C@H](c3cc(OC)cc(Br)c3OC)S2)c1 [Compound B1]
CC50 at 72 h [2]: > 64 µM | SI CC50/IC50 [3]: >2112.2

IC50 [1, 4]: 0.0306 ± 0.0092 µM
SMILES: COc1cc([C@@H]2CC(=O)C[C@@H](c3cc(OC)c(C)cc3OC)S2)c(OC)cc1C [Compound B2]

IC50 [1, 4]: 0.0604 ± 0.0102 µM
SMILES: O=C1C[C@@H](c2c(Cl)cccc2Cl)S[C@@H](c2c(Cl)cccc2Cl)C1 [Compound B4]

IC50 [1, 4]: > 0.5 µM
SMILES: O=C1C[C@@H](c2c(Cl)cccc2Cl)S[C@H](c2c(Cl)cccc2Cl)C1 [Compound B8]
CC50 at 72 h [2]: > 64 µM | SI CC50/IC50 [3]: <128

IC50 [1, 4]: > 0.5 µM
SMILES: CN(C)c1ccc([C@H]2CC(=O)C[C@H](c3ccc(N(C)C)cc3)S2)cc1 [Compound B12]
observed activity against 3D7 P. falciparum strain (in words) ([1]; in vitro 3D7 culture, active/inactive): inactive | CC50 at 72 h [2]: 4.96 µM | SI CC50/IC50 [3]: <9.9 | cytotoxicity classification from CC50 [3]: moderately cytotoxic

IC50 [1, 6]: 0.0203 ± 0.0052 µM
SMILES: CCN(CC)CCCC(C)Nc1ccnc2cc(Cl)ccc12 (stereo not drawn) [chloroquine, reference compound]

Source: publication PMC6273176, “In Silico Mining for Antimalarial Structure-Activity Knowledge and Discovery of Novel Antimalarial Curcuminoids” (Molecules, 2016)
